Measured values from publication doi:10.1101/2025.02.28.640722v1 (biorxiv, 2025).
Square brackets hold non-standard residues; d marks the D form. Peptide text beside a SMILES is read from it. * marks the point of attachment. hCha = N[C@@H](CCC1CCCCC1)C(=O)O; Bz = O=C(c1ccccc1)*

Target: Human mitochondrial ClpP (hClpP) (Homo sapiens, UniProt Q16740)
Test: peptidase activation
Type: biochemical
Conditions: activator at 1.5 mM, 200 nM human ClpP, no ATPase partner

Human mitochondrial ClpP (hClpP), sequence (Q16740 57-277): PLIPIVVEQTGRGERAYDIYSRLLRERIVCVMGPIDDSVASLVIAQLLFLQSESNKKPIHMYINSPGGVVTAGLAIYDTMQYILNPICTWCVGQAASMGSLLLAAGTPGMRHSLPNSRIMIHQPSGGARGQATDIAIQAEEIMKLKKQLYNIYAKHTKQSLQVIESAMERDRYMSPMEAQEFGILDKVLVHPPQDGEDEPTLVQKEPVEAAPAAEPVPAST

Q: CC[C@H](C)[C@H](NC(=O)[C@H](CCC1CCCCC1)NC(=O)c1ccccc1)C(=O)O [Bz-ChEtg-Ile] (Bz-[hCha]-Ile-OH) was tested. Which fold activation did it give?
A: >15 times
